The record followed here is ChEMBL document CHEMBL1201862, “PubChem BioAssay data set” (2004).

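All cell lines were grown in 96-well plates and treated with compound for 48 hours. At the GI50, growth is halved.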 Activity calls are given as the source filed them. No stated cut-off is given here; in the data, active = GI50 up to about 1.1 µM and inactive = higher. A value given as a limit tells only on which side of the number the result lay.

Experiment in all cases: growth of human tumour cells (NCI), 48 h
For experiment [1], the system named is HOP-92.
Experiment [2] concerns MCF7.
The subject of experiment [3] is OVCAR-5.
For experiment [4], the system named is SN12C.
Experiment [5] deals with HCT-116.
Experiment [6] concerns UACC-62.
Experiment [7] concerns Malme-3M.
Experiment [8] has as its system UO-31.
The subject of experiment [9] is HCT-15.
Experiment [10] relates to SF-295.
Experiment [11] relates to UACC-257.
For experiment [12], the system named is SR.
Experiment [13] relates to 786-0.
In experiment [14] the test system is HL-60.
In experiment [15] the test system is SNB-19.
Experiment [16] concerns OVCAR-3.
Experiment [17] deals with OVCAR-4.
Experiment [18] has as its system Hs-578T.
Experiment [19] concerns SK-MEL-28.
Experiment [20] deals with A498.

As to `COC(=O)[C@@H]1C[C@@H]2c3ccccc3N(S(=O)(=O)c3ccccc3)[C@@H]2N1C(=O)OC`, the GI50 in experiment [1] was > 100 µM (inactive); in experiment [2] it was > 100 µM (inactive); in [3], 44 µM (inactive); in experiment [4], > 100 µM (inactive); in experiment [5], > 100 µM (inactive); in experiment [6], > 100 µM (inactive). For the same molecule, the GI50 is > 100 µM (inactive) in experiment [7]; > 100 µM (inactive) in [8]; over 100 µM in experiment [9]; > 100 µM (inactive) in [10]; > 100 µM (inactive) in [11]; > 100 µM (inactive) in experiment [12]. Further, the GI50 in experiment [13], in [14], in experiment [15], in [16], in experiment [17] and in experiment [18] was > 100 µM (inactive) throughout. In addition, the GI50 in [19] is > 100 µM (inactive).
On to `O=C(NNC(=S)Nc1cccc(Cl)c1)c1cc(-c2ccccc2)nc2ccccc12`, for which the GI50 is 12.5 µM (inactive) in experiment [1]; 10 µM (inactive) in experiment [2]; 15.4 µM (inactive) in [3]; 14.7 µM (inactive) in experiment [4]; 15.4 µM (inactive) in [5]; 13.4 µM (inactive) in [6]. For the same molecule, the GI50 in experiment [7] is 15.4 µM (inactive); in experiment [8], 15.1 µM (inactive); in experiment [9] it was 14.6 µM; in experiment [10], 11.7 µM (inactive); in experiment [11], 15.7 µM (inactive); in experiment [12], 23.9 µM (inactive). Also, the GI50 in [13] was 17.1 µM (inactive); in experiment [15], 17 µM (inactive); in experiment [16] it was 15.1 µM (inactive); in [17], 14.3 µM (inactive); in experiment [18] it was 19.6 µM (inactive); in [19] it was 12.4 µM (inactive).
With `CC(=O)N1C(Nc2ccccc2)CCN1c1ccccc1` (stereo unspecified), the GI50 is > 10 µM (inactive) in [1]; > 10 µM (inactive) in experiment [2]; > 10 µM (inactive) in experiment [3]; > 10 µM (inactive) in experiment [4]; > 10 µM (inactive) in experiment [5]; 5.38 µM (inactive) in experiment [7]. Further, the GI50 was 4.45 µM (inactive) in experiment [8]; 3.66 µM in [9]; 3.96 µM (inactive) in experiment [10]; > 10 µM (inactive) in [11]; > 10 µM (inactive) in experiment [12]; > 10 µM (inactive) in experiment [13]. Also, the GI50 in experiment [14] is 5.08 µM (inactive); in [15], > 10 µM (inactive); in experiment [16] it was > 10 µM (inactive); in [17] it was > 10 µM (inactive); in experiment [18] it was > 10 µM (inactive); in experiment [19], > 10 µM (inactive).
Regarding `CN(C)C1=Nc2ccccc2C(=S)N2CSCC12` (stereo unspecified), the GI50 in experiment [2] was 47.3 µM (inactive); in experiment [3], > 100 µM (inactive); in [4], 84.5 µM (inactive); in [5], > 100 µM (inactive); in experiment [6], 75.5 µM (inactive); in experiment [7], 32.7 µM (inactive). Besides, the GI50 in experiment [8] was > 100 µM (inactive); in experiment [9] it was 34 µM; in experiment [10], > 100 µM (inactive); in experiment [11], > 100 µM (inactive); in [12] it was 17.9 µM (inactive); in experiment [20] it was > 100 µM (inactive). Moreover, the GI50 in experiment [13] was 25.9 µM (inactive); in experiment [15], > 100 µM (inactive); in experiment [16] it was 32.7 µM (inactive); in [17], > 100 µM (inactive); in [18], 77.3 µM (inactive); in experiment [19] it was 81.1 µM (inactive).
With `CSc1c(C#N)c2n(c3ccccc3[n+]2C)c2ncccc12`, the GI50 in [2] is 15 µM (inactive); in experiment [3] it was 23.2 µM (inactive); in experiment [4], 21.2 µM (inactive); in experiment [5], 24.2 µM (inactive); in experiment [6], 17.6 µM (inactive); in [7], 19.4 µM (inactive). In addition, the GI50 is 16.1 µM (inactive) in experiment [8]; 21.5 µM in experiment [9]; 18.9 µM (inactive) in experiment [10]; 23.5 µM (inactive) in experiment [12]; 25.8 µM (inactive) in [20]; 17.7 µM (inactive) in experiment [13]. Further, the GI50 in experiment [15] was 32.6 µM (inactive); in [16], 22.2 µM (inactive); in [17], 30.8 µM (inactive); in experiment [18] it was 36.7 µM (inactive); in experiment [19] it was 21.4 µM (inactive).
Turning to `CCCCCCCCCCOC1C(C(O)CNCCCN(C)C)OC2OC3(CCCCC3)OC21` (stereo unspecified), the GI50 in experiment [1] was 1.07 µM (active); in experiment [2], 2.07 µM (inactive); in [3], 1.72 µM (inactive); in [4], 2.33 µM (inactive); in experiment [5], 1.99 µM (inactive); in experiment [6] it was 2.79 µM (inactive). In addition, the GI50 in experiment [7] was 1.99 µM (inactive); in [8], 2.37 µM (inactive); in experiment [9], 1.69 µM; in experiment [10] it was 1.86 µM (inactive); in [11] it was 4.05 µM (inactive); in experiment [12], 0.329 µM (active). For the same molecule, the GI50 is 1.9 µM (inactive) in experiment [13]; 1.69 µM (inactive) in experiment [14]; 1.75 µM (inactive) in experiment [15]; 1.96 µM (inactive) in [16]; 2.04 µM (inactive) in experiment [17]; 3.17 µM (inactive) in experiment [18]. In addition, the GI50 in experiment [19] is 1.66 µM (inactive).
Consider `CC(C)CC1NC(=O)C(C(C)C)NC(=O)CC(C)COC(=O)C(CC(C)C)N(C)C(=O)C(C(C)C)NC(=O)C(C(C)C)OC1=O` (stereo unspecified), for which the GI50 in experiment [1] was 26.5 µM (inactive); in [2] it was > 50 µM (inactive); in experiment [3], 37.7 µM (inactive); in experiment [4], > 50 µM (inactive); in [5], > 50 µM (inactive); in [6], 16 µM (inactive). Further, the GI50 in experiment [7] was > 50 µM (inactive); in experiment [8], > 50 µM (inactive); in experiment [9] it was over 50 µM; in experiment [10], 38.4 µM (inactive); in [11], > 50 µM (inactive); in [12] it was > 50 µM (inactive). For the same molecule, the GI50 was > 50 µM (inactive) in experiment [20]; 31.3 µM (inactive) in [13]; 17.1 µM (inactive) in [15]; > 50 µM (inactive) in experiment [16]; 26.7 µM (inactive) in [18]; > 50 µM (inactive) in experiment [19].
With `C[C@]12CC/C(=N\O)C=C1CC[C@@H]1[C@@H]2CC[C@]2(C)C(=N/O)/C(=C/c3ccncc3)C[C@@H]12`, the GI50 is 30.5 µM (inactive) in [1]; 16.3 µM (inactive) in [2]; 42.8 µM (inactive) in experiment [3]; 17.3 µM (inactive) in experiment [4]; 10 µM (inactive) in [5]; 16.4 µM (inactive) in [6]. Also, the GI50 in experiment [7] is 37.5 µM (inactive); in [8] it was 3.62 µM (inactive); in experiment [9], 5.48 µM; in experiment [10], 31.3 µM (inactive); in [11], 28.4 µM (inactive); in experiment [12] it was 12.7 µM (inactive). The GI50 in experiment [13] was 24.7 µM (inactive); in experiment [14], 0.1 µM (active); in [15], 28.8 µM (inactive); in experiment [16], 20 µM (inactive); in experiment [17], 31.9 µM (inactive); in [18] it was 86.5 µM (inactive). For the same molecule, the GI50 in experiment [19] was 39.8 µM (inactive).
